Data: paper PMC10447463, “Data-mining unveils structure–property–activity correlation of viral infectivity enhancing self-assembling peptides” (Nature Communications, 2023)
Like-named read-outs stand apart in the source and are kept apart here.

Experiments:
[1] = system: HIV-1 infection of TZM-bl cells; assay: HIV-1 infectivity enhancement assay, β-galactosidase luminescence; type: cell-based; conditions: for Rel-EFC / Log10 Infection Rel EFC: 1.3 µM peptide; for Rel-EFC: infection relative to EF-C (QCKIKQIINMWQ = 1); for Log10 Infection Rel EFC: log10 of infection relative to EF-C; for Log Infectivity: Log10 infection relative to EF-C, TZM-bl cells, asymmetric std dev errors; for Log10 Infection Rel EF-C: HIV-1 infection of TZM-bl cells; for Log10 of Rel to EFC (Feb2021): Log10 of infection relative to EF-C, all peptides of FigS16; for Abs. Inf.: absolute infection signal, HIV-1 on TZM-bl cells, β-galactosidase luminescence; for Log10 Inf. rel. to EF-C: log10 of HIV-1 infection of TZM-bl cells relative to EF-C (EF-C = 0)
[2] = type: physicochemical; set-up: key to Fibril / Fibril Formation / TEM 2cat / Fibril: 1 = fibrils present; 0 non-fibrillar structures; conditions: for Fibril / Fibril Formation: 1 mg/mL, uranyl acetate stain, qualitative
[3] = β-sheet content by ATR-FT-IR; type: physicochemical; conditions: Fig. S7 panel A; β-sheet content by ATR-FT-IR
How it was run: (§1)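 Using ATR FT-IR (diamond, 2 cm^-1, 64 scans), lyophilized 1 mg/mL PNF samples gave β-sheet content by a published calculation. Fluorescamine signals of 3 kDa filtrates relative to unfiltered samples, normalised to DMSO as 1, yielded CR in percent.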

[4] = Zeta-potential measurement; type: physicochemical
How it was run: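 Readout: zeta potential (mV) derived by Smoluchowski from measured electrophoretic mobility. Preformed aggregates (1 mg/mL peptide, PBS pH 7.4, RT for 1 d) were diluted into dilute KCl electrolyte (1 mM) shortly before analysis.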

[5] = Conversion rate (CR) assay with fluorescamine; type: physicochemical; set-up: key to CR: % = 100−100×filtrate/original fluorescence intensity; conditions: conversion rate, fluorescamine assay; for CR / %: Fig. S7 panel B
How it was run: as §1

[6] = Turbidity, derived count rate of scattered light; type: physicochemical; conditions: for Count Rate: derived count rate of scattered light (turbidity); for Log10 Count Rate: turbidity, derived count rate of scattered light, data of Figure 2D
[7] = Fig. S7 panel A (plotted against β-sheet content)
[8] = Fig. S7 panel B (plotted against CR), rounded to two decimals
[9] = Log10 of infection rate relative to EF-C, Figure 3A source data
[10] = infection rate relative to EF-C, log10, data of Figure 2D
[11] = infection rate relative to EF-C, log10, source data of Figure 2C
[12] = TEM, 1 = fibrils present, 0 = non-fibrillar
[13] = TEM, 1 = fibrils present, 0 = non-fibrillar structures
[14] = category: fibrils present or non-fibrillar
[15] = zeta-potential of peptide, source data of Figure 2C
[16] = zeta-potential of the peptide assemblies, mean, Figure 3A source data
[17] = FigS12 panel A, fibril category by TEM

Row | Substance | Rel-EFC [1] | Log10 Infection Rel EFC [1] | Log Infectivity [1, 7] | Log Infectivity [1, 8] | Log10 Infection Rel EF-C [1, 9] | Log10 Infection Rel EF-C [1, 10] | Log10 Infection Rel EF-C [1, 11] | Abs. Inf. [1] | Log10 Inf. rel. to EF-C [1] | TEM 2cat ([2]; Fig S10 panel D) | Fibril ([2]; Fig S10 panel E) | Fibril / Fibril Formation ([2]; TEM) | Fibril [2, 12] | Fibril [2, 13] | b -sheet / % [3] [%] | Zeta-Pot. [4] | Zeta-Potential / mV [4, 15] [mV] | Zeta-Potential / mV [4, 16] [mV] | CR / % [5] [%] | CR [5] | further results
1 | KIKQIINMWQ | 0,35 | -0,46 | -0.4604 | -0.46 | -0.46 | -0.4604 | -0.4604 | 9363 | -0.4604 | 1 | 1 | 1 | 1 | 1 | 40.68 | 15.37 | 16.2 | 15.37 | 90.1 | 90.09 | Log10 of Rel to EFC (Feb2021) [1]: -0.46; TEM 2cat [2, 14]: 1; Count Rate [6]: 615.5; Log10 Count Rate [6]: 2.789
2 | CKIKQIINM | 0,5 | -0,3 | -0.3035 | -0.3 | -0.3 | -0.3035 | -0.3035 | 11280 | -0.3035 | 1 | 1 | 1 | 1 | 1 | 46 | 12.9 | 13.87 | 12.9 | 45 | 45 | Log10 of Rel to EFC (Feb2021) [1]: -0.3; TEM 2cat [2, 14]: 1; Count Rate [6]: 9058; Log10 Count Rate [6]: 3.957
3 | CHLHLQL | 0,1 | -1,01 | -1.008 | -1.01 | -1.01 | -1.008 | -1.008 | 2934 | -1.008 | 0 | 0 | 0 | 0 | 0 | 49.52 | -12.27 | -10.37 | -12.27 | 96.6 | 96.58 | Abs. Infection at 0.26 µM ([1]; peptide 0.26 µM, mean of n = 3, Figure 4A): 572.2; Infect 1 0.26 µM ([1]; peptide 0.26 µM, replicate 1, absolute infection signal, Figure 4A): 545.6; Infect 2 0.26 µM ([1]; peptide 0.26 µM, replicate 2, absolute infection signal, Figure 4A): 488.9; Infect 3 0.26 µM ([1]; peptide 0.26 µM, replicate 3, absolute infection signal, Figure 4A): 682.2; Abs. Infection at 1.3 µM ([1]; peptide 1.3 µM, mean of n = 3, Figure 4A): 2934; Infect 1 .3 µM ([1]; peptide 1.3 µM, replicate 1, absolute infection signal, Figure 4A): 3586; Infect 2 1.3µM ([1]; peptide 1.3 µM, replicate 2, absolute infection signal, Figure 4A): 2346; Infect 3 1.3 µM ([1]; peptide 1.3 µM, replicate 3, absolute infection signal, Figure 4A): 2872; TEM 2cat [2, 17]: 0; Fibril ([2]; FigS12 panel B, TEM): 0; Count Rate [6]: 1155; Log10 Count Rate [6]: 3.062
4 | MKFKFQF | 0,06 | -1,2 | -1.196 | -1.2 | -1.2 | -1.196 | -1.196 | 1427 | -1.196 | 1 | 1 | 1 | 1 | 1 | 21.97 | -3.133 | -0.4917 | -3.13 | 86.9 | 86.86 | TEM 2cat [2, 17]: 1; Fibril ([2]; FigS12 panel B, TEM): 1; Count Rate [6]: 124; Log10 Count Rate [6]: 2.0933
